Reference: patent EP4660185A1, “NAV1.7- AND/OR NAV1.8-INHIBITING AMIDES, PROCESSES FOR THE PREPARATION THEREOF, COMPOSITIONS, USES, METHODS FOR TREATMENT USING SAME, AND KITS” (Eurofarma Laboratórios S.A., priority 2023, dated 2024)

Columns and labels:
[1] = target: T1, human sodium channels Nav 1.7 (Homo sapiens, UniProt Q15858); test: Automated whole-cell voltage-clamp (ScreenPatch 384P) sodium current block, Nav 1.7; format: cell-based; details: CHO cells stably expressing human Nav 1.7; holding -100 mV, inactivation step -40 mV for 8 seconds, test step 0 mV (TP1A); exposure at least five minutes, room temperature; mean where tested in two or more assays; read-out: Nav1.7 IC50
T1 construct: expressed in transfected cells
Method: (§1) Biological assays were performed on Chinese hamster ovary (CHO) cells that express human sodium channels Nav 1.8 or Nav 1.7 in a stable manner.
(§2) The experimental protocol voltage-clamp using the whole cell configuration was established on the automated ScreenPatch® 384P platform (SP384PE, Nanion Technologies, Livingston, NJ) and the results were recorded with a Nanion 384-well Patch Clamp chip (NPC) (Nanion Technologies, Livingston, NJ).
(§3) Compounds of Formula Ia and Formula Ib were diluted in eight concentrations in the extracellular solution composed of saline solution, buffered with HEPES (mM): NaCl, 137; KCl, 4; CaCl2, 3,8; MgCl2, 1; HEPES, 10; Glucose, 10; pH 7.4. The […], 50; CsF, 90; MgCl2, 5; EGTA, 5; HEPES, 10; pH 7.2. The duration of exposure of each compound with cells expressing Nav 1.7 or Nav 1.8 was at least five minutes, and the assays were performed at room temperature.
(§4) The measurements of the sodium currents of Nav 1.8 and Nav 1.7 were obtained using the voltage protocol described below: A holding voltage of -100 mV was established followed by an inactivation voltage step at -40 mV for 8 seconds, followed by a step of -100 mV for 20 ms, followed by a 20 ms step for 10 mV for Nav 1.8 or 0 mV for Nav 1.7 (TP1A) before returning to the holding voltage of -100 mV.
(§5) The protocol was repeated at a frequency of 0.05 Hz and the amplitude of the current was quantified throughout the recording of the TP1A phase. The variation in the amplitude of the peak current was evaluated according to the formula described below, after exposing the cells expressing the channels to each concentration of the different compounds: % Block = (1−(ITP1A,molecule/ITP1A,basal)×100%, [formula] wherein ITP1A,basal and ITP1A,molecule represent the peaks of sodium current input into TP1A before exposure to the compound and in the presence of the compound, respectively.
(§6) Data were obtained by nonlinear regression (nonlinear least squares) with XLfit for Excel (Microsoft, Redmond, WA).
(§7) The compounds were tested in at least one assay to obtain the value of CI50. For compounds that were tested in two or more assays, the results are described as the mean of the CI50 values.

[2] = target: T2, human sodium channels Nav 1.8 (Homo sapiens, UniProt Q9Y5Y9); test: Automated whole-cell voltage-clamp (ScreenPatch 384P) sodium current block, Nav 1.8; format: cell-based; details: CHO cells stably expressing human Nav 1.8; holding -100 mV, inactivation step -40 mV for 8 seconds, test step 10 mV (TP1A); exposure at least five minutes, room temperature; mean where tested in two or more assays; read-out: Nav1.8 IC50
T2 construct: expressed in transfected cells
Method: as §1, §2, §3, §4, §5, §6, §7

T1 sequence (Q15858 whole entry): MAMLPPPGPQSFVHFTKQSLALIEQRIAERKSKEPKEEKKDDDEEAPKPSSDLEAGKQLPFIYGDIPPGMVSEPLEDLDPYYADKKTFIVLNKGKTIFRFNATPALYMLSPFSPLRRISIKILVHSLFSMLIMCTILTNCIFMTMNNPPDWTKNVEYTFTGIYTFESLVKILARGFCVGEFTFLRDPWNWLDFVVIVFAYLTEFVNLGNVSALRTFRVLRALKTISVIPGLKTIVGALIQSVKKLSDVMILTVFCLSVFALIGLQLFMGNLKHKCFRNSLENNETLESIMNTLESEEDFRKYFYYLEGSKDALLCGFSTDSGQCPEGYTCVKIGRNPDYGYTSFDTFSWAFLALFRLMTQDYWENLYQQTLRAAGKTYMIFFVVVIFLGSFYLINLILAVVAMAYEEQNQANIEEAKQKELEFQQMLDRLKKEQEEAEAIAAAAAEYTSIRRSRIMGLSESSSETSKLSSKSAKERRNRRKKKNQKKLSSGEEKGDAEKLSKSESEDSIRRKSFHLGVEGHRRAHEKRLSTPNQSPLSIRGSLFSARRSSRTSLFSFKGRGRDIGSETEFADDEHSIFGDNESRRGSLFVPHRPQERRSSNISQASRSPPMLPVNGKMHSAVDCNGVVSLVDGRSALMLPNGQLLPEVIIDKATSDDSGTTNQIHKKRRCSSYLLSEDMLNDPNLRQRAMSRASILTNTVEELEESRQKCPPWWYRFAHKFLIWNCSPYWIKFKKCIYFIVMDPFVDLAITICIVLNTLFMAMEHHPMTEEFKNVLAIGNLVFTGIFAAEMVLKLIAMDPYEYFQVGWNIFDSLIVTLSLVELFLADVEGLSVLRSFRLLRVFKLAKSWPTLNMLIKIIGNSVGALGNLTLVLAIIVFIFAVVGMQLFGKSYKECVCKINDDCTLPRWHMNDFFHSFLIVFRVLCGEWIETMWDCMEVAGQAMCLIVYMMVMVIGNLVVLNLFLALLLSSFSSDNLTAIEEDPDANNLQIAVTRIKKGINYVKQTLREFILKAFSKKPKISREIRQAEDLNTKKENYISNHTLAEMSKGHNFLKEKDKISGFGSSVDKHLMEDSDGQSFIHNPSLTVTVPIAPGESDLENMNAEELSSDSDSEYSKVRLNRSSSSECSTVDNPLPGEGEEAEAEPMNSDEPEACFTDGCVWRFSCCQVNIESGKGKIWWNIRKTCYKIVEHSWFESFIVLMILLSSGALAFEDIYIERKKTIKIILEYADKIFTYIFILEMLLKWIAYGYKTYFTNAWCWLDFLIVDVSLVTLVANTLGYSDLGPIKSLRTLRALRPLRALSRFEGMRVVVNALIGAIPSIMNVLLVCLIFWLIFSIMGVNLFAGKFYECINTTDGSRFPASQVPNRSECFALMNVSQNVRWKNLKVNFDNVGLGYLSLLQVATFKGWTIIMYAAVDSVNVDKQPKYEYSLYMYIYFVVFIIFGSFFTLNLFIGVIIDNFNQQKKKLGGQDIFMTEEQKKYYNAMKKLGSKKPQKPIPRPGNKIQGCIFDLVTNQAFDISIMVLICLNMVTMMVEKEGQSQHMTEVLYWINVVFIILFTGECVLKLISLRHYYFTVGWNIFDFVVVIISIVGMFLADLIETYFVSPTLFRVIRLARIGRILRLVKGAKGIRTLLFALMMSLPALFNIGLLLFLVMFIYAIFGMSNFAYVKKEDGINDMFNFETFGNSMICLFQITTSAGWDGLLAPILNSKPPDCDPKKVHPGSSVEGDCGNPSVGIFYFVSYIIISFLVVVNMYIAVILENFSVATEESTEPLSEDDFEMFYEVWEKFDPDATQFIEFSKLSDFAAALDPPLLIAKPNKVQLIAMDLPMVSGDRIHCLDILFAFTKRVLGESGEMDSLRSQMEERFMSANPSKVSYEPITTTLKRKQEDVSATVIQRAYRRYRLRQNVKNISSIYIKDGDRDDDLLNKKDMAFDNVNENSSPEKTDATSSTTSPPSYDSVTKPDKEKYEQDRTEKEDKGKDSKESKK
T2 sequence (Q9Y5Y9 whole entry): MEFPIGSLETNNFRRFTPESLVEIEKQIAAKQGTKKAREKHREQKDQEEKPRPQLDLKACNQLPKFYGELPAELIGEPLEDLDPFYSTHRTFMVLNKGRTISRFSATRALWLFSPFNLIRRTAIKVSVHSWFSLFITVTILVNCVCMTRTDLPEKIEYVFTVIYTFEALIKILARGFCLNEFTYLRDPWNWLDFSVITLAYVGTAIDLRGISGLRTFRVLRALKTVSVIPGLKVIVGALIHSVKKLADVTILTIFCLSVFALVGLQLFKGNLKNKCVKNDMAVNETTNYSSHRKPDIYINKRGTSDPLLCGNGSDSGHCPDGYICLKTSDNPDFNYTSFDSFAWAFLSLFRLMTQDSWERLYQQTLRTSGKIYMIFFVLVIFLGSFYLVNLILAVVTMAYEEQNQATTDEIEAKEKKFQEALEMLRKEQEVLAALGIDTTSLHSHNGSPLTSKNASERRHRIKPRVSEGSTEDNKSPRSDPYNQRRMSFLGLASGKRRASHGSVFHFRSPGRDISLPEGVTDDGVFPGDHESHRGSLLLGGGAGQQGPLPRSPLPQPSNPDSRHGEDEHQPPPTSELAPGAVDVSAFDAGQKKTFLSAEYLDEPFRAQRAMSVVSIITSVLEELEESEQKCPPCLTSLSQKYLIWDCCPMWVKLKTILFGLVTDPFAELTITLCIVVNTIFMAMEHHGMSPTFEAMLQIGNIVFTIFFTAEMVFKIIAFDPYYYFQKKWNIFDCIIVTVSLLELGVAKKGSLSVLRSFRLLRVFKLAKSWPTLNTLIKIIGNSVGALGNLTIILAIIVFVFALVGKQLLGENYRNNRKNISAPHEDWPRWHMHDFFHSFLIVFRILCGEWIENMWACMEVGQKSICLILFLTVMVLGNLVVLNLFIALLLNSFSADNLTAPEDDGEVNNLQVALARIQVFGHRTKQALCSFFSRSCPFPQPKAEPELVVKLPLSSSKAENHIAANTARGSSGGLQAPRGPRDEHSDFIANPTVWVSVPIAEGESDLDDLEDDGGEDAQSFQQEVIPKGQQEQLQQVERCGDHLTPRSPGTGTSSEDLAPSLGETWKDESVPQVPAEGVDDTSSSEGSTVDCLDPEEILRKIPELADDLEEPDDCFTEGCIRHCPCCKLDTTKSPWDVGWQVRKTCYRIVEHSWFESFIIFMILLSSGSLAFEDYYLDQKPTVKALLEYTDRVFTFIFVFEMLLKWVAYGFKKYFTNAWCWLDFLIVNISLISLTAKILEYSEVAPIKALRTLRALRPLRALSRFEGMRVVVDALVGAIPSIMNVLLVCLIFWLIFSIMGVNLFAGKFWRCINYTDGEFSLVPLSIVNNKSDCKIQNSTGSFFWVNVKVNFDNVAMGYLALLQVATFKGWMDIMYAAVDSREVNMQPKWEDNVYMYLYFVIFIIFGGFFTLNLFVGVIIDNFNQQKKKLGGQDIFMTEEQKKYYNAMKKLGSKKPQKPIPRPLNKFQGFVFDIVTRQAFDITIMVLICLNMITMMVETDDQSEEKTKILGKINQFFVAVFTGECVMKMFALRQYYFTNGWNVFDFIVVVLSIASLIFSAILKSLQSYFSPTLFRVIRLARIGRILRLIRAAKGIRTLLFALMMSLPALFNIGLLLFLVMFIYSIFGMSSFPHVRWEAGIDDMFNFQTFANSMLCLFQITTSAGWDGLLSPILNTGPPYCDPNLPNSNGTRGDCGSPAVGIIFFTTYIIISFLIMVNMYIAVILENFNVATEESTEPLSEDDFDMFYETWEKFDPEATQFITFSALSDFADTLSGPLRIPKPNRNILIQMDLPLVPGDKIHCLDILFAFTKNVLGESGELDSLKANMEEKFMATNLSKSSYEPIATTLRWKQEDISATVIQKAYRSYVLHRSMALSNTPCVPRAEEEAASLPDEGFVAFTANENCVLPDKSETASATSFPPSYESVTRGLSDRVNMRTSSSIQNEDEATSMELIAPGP

SMILES: CCOc1ccc(-c2cncc(C(=O)NCc3ccc4ccc(OC)cn34)n2)cn1 [compound 80]
- IC50 [1]: > 1 µM
- IC50 [2]: < 0.5 µM

SMILES: CCOc1ccc(-c2cncc(C(=O)NCCc3cccc(OC)c3)n2)cc1 [compound 5]
- IC50 [1]: < 0.5 µM
- IC50 [2]: < 0.5 µM

SMILES: CCOc1ccc(-c2cncc(C(=O)Nc3cc4c(F)ccc(OC)c4[nH]3)n2)cc1 [compound 76]
- IC50 [1]: > 1 µM
- IC50 [2]: > 1 µM

SMILES: CCOc1ccc(-c2cccc(C(=O)NCCc3cc(OC)cnc3F)n2)cc1 [compound 103]
- IC50 [1]: > 1 µM
- IC50 [2]: > 1 µM

SMILES: CCOc1ccc(-c2cncc(C(=O)NCCc3cc(C(C)O)ccc3F)n2)cn1 (stereo not shown) [compound 43]
- IC50 [1]: 0.5 to 1 µM
- IC50 [2]: < 0.5 µM

SMILES: COc1cc(OC)cc([C@H](O)CNC(=O)c2cncc(-c3ccc(OC(F)F)cc3)n2)c1 [compound 54]
- IC50 [1]: > 1 µM
- IC50 [2]: < 0.5 µM

SMILES: [2H]C([2H])([2H])Oc1cc(OC([2H])([2H])[2H])cc([C@H](O)CNC(=O)c2cncc(-c3ccc(OC(F)F)nc3)n2)c1 [compound 91]
- IC50 [1]: > 1 µM
- IC50 [2]: < 0.5 µM

SMILES: CCOc1ccc(-c2cncc(C(=O)NC[C@H](O)c3cc(OC)cc(OC)c3)n2)cc1 [compound 24]
- IC50 [1]: > 1 µM
- IC50 [2]: > 1 µM

SMILES: COc1cnc(F)c(CCNC(=O)c2cncc(-c3ccc(C(C)O)cc3)n2)c1 (stereo not shown) [compound 59]
- IC50 [1]: > 1 µM
- IC50 [2]: > 1 µM

SMILES: CCOc1ccc(-c2cncc(C(=O)NCCc3cc(OC)cc(OC)c3)n2)cn1 [compound 44]
- IC50 [1]: > 1 µM
- IC50 [2]: > 1 µM

SMILES: CCOc1ccc(-c2cncc(C(=O)N[C@@H]3Cc4c(OC)cnc(F)c4C3)n2)cn1 [compound 84]
- IC50 [1]: > 1 µM
- IC50 [2]: < 0.5 µM

SMILES: CCOc1ccc(-c2cncc(C(=O)NCCc3cc(OC)ccc3F)n2)cc1 [compound 17]
- IC50 [1]: 0.5 to 1 µM
- IC50 [2]: < 0.5 µM

SMILES: CCOc1ccc(-c2cncc(C(=O)NCCc3cccc(C(C)O)c3)n2)cc1 (stereo not shown) [compound 13]
- IC50 [1]: > 1 µM
- IC50 [2]: < 0.5 µM

SMILES: COc1cc(CCNC(=O)c2cncc(-c3ccc(OC(C)C)nc3)n2)cc(OC)c1 [compound 28]
- IC50 [1]: 0.5 to 1 µM
- IC50 [2]: < 0.5 µM

SMILES: COc1cc(CCNC(=O)c2cncc(-c3ccc(OC(C)C)cc3)n2)cc(OC)c1 [compound 1]
- IC50 [1]: > 1 µM
- IC50 [2]: 0.5 to 1 µM

SMILES: [2H]C([2H])([2H])Oc1cc(OC([2H])([2H])[2H])cc([C@H](O)CNC(=O)c2cncc(-c3ccc(OC(F)F)cc3)n2)c1 [compound 96]
- IC50 [1]: > 1 µM
- IC50 [2]: < 0.5 µM

SMILES: CCOc1ccc(-c2cncc(C(=O)Nc3nc4c(OC)ccc(F)c4n3C)n2)cn1 [compound 66]
- IC50 [1]: > 1 µM
- IC50 [2]: > 1 µM

SMILES: CCOc1ccc(-c2cncc(C(=O)NCCc3cc(OC)cc(OC)c3)n2)c(C)n1 [compound 31]
- IC50 [1]: > 1 µM
- IC50 [2]: > 1 µM

SMILES: CCOc1ccc(-c2cncc(C(=O)NCCc3cc(C(C)O)ccc3F)n2)cc1 (stereo not shown) [compound 15]
- IC50 [1]: > 1 µM
- IC50 [2]: < 0.5 µM

SMILES: CCOc1ccc(-c2cncc(C(=O)NCCc3cc(OC)cc(C(C)O)c3)n2)cc1 (stereo not shown) [compound 12]
- IC50 [1]: > 1 µM
- IC50 [2]: < 0.5 µM

SMILES: CCOc1ccc(-c2cncc(C(=O)Nc3nc4c(F)ccc(OC)c4s3)n2)cn1 [compound 61]
- IC50 [1]: > 1 µM
- IC50 [2]: > 1 µM

SMILES: CCOc1ccc(-c2cncc(C(=O)NCCc3cc(OC)cnc3C)n2)cc1 [compound 18]
- IC50 [1]: > 1 µM
- IC50 [2]: < 0.5 µM

SMILES: CCOc1ccc(-c2cncc(C(=O)NCCc3cc(OC)cc(OC)c3)n2)cc1 [compound 10]
- IC50 [1]: 0.5 to 1 µM
- IC50 [2]: < 0.5 µM

SMILES: CCOc1ccc(-c2cnnc(C(=O)NCCc3cc(OC)cnc3F)c2)cc1 [compound 101]
- IC50 [1]: > 1 µM
- IC50 [2]: > 1 µM

SMILES: COc1ccc(-c2cncc(C(=O)NCCc3ccccc3F)n2)cn1 [compound 48]
- IC50 [1]: > 1 µM
- IC50 [2]: > 1 µM

SMILES: COc1ccc(-c2cncc(C(=O)NCCc3cc(OC)cc(OC)c3)n2)cc1 [compound 49]
- IC50 [1]: > 1 µM
- IC50 [2]: > 1 µM

SMILES: CCOc1ccc(-c2cncc(C(=O)Nc3cc4cccc(OC)c4[nH]3)n2)cn1 [compound 72]
- IC50 [1]: > 1 µM
- IC50 [2]: > 1 µM

SMILES: CCOc1ccc(-c2cncc(C(=O)NCc3cnc4ccc(OC)cn34)n2)cn1 [compound 86]
- IC50 [1]: > 1 µM
- IC50 [2]: > 1 µM

SMILES: CCOc1ccc(-c2cncc(C(=O)Nc3cc4c(F)ccc(OC)c4n3C)n2)cn1 [compound 70]
- IC50 [1]: > 1 µM
- IC50 [2]: > 1 µM

SMILES: CCOc1ccc(-c2cncc(C(=O)NCCc3cccc(OC)c3)n2)cn1 [compound 45]
- IC50 [1]: 0.5 to 1 µM
- IC50 [2]: < 0.5 µM

SMILES: CCOc1ccc(-c2cncc(C(=O)Nc3cc4c(OC)ccc(F)c4n3C)n2)cn1 [compound 75]
- IC50 [1]: > 1 µM
- IC50 [2]: > 1 µM

SMILES: CCOc1cc(C)c(-c2cncc(C(=O)NCCc3cc(OC)cc(OC)c3)n2)cn1 [compound 30]
- IC50 [1]: > 1 µM
- IC50 [2]: > 1 µM

SMILES: CCOc1ccc(-c2cncc(C(=O)Nc3cc4c(OC)ccc(F)c4[nH]3)n2)cc1 [compound 77]
- IC50 [1]: > 1 µM
- IC50 [2]: > 1 µM

SMILES: CCOc1ccc(-c2cncc(C(=O)NCCc3cc(OC)cc(OC)c3)n2)c(F)c1 [compound 3]
- IC50 [1]: > 1 µM
- IC50 [2]: < 0.5 µM

SMILES: [2H]C([2H])([2H])Oc1ccc(-c2cncc(C(=O)NCCc3ccccc3F)n2)cn1 [compound 89]
- IC50 [1]: > 1 µM
- IC50 [2]: < 0.5 µM

SMILES: CCOc1ccc(-c2cncc(C(=O)N[C@@H]3Cc4c(F)ccc(OC)c4C3)n2)cn1 [compound 81]
- IC50 [1]: > 1 µM
- IC50 [2]: < 0.5 µM

SMILES: CCOc1ccc(-c2cncc(C(=O)Nc3nc4c(F)ccc(OC)c4o3)n2)cn1 [compound 65]
- IC50 [1]: > 1 µM
- IC50 [2]: > 1 µM

SMILES: CCOc1ccc(-c2cncc(C(=O)Nc3nc4c(F)ncc(OC)c4o3)n2)cn1 [compound 67]
- IC50 [1]: > 1 µM
- IC50 [2]: > 1 µM

SMILES: [2H]C([2H])([2H])Oc1ccc(-c2cncc(C(=O)NCCc3cc(OC)cnc3F)n2)cn1 [compound 90]
- IC50 [1]: > 1 µM
- IC50 [2]: > 1 µM

SMILES: COc1cnc(F)c(CCNC(=O)c2cncc(-c3ccc(OC)nc3)n2)c1 [compound 53]
- IC50 [1]: 0.5 to 1 µM
- IC50 [2]: < 0.5 µM

SMILES: CCOc1ccc(-c2cncc(C(=O)Nc3cc4c(OC)cccc4[nH]3)n2)cc1 [compound 60]
- IC50 [1]: 0.5 to 1 µM
- IC50 [2]: < 0.5 µM

SMILES: CCOc1ccc(-c2ccnc(C(=O)NCCc3cc(OC)cnc3F)c2)cc1 [compound 105]
- IC50 [1]: < 0.5 µM
- IC50 [2]: > 1 µM

SMILES: [2H]C([2H])([2H])Oc1ccc(-c2cncc(C(=O)NCCc3cc(OC)cnc3F)n2)cc1 [compound 94]
- IC50 [1]: > 1 µM
- IC50 [2]: < 0.5 µM

SMILES: CCOc1ccc(-c2cncc(C(=O)NCCc3ccccc3F)n2)cc1 [compound 6]
- IC50 [1]: < 0.5 µM
- IC50 [2]: < 0.5 µM

SMILES: COc1ccc(-c2cncc(C(=O)NCCc3cc(OC)cnc3F)n2)cc1 [compound 52]
- IC50 [1]: > 1 µM
- IC50 [2]: < 0.5 µM

SMILES: CCOc1ccc(-c2cncc(C(=O)Nc3cn4c(F)ccc(OC)c4n3)n2)cn1 [compound 63]
- IC50 [1]: > 1 µM
- IC50 [2]: > 1 µM

SMILES: O=C(NCCc1ccccc1F)c1cncc(-c2ccc(OC(F)F)nc2)n1 [compound 47]
- IC50 [1]: > 1 µM
- IC50 [2]: > 1 µM

SMILES: CCOc1ccc(-c2ccnc(C(=O)NCCc3cc(OC)cnc3F)n2)cn1 [compound 115]
- IC50 [1]: > 1 µM
- IC50 [2]: > 1 µM

SMILES: CCOc1ccc(-c2cncc(C(=O)NCCc3cc(OC)cc(OC)c3)n2)c(C)c1 [compound 4]
- IC50 [1]: < 0.5 µM
- IC50 [2]: < 0.5 µM

SMILES: CCOc1ccc(-c2nccc(C(=O)NCCc3cc(OC)cnc3F)n2)cc1 [compound 106]
- IC50 [1]: > 1 µM
- IC50 [2]: > 1 µM

SMILES: CCOc1ccc(-c2cncc(C(=O)Nc3cc4c(F)ccc(OC)c4[nH]3)n2)cn1 [compound 69]
- IC50 [1]: > 1 µM
- IC50 [2]: < 0.5 µM

SMILES: CCOc1ccc(-c2cncc(C(=O)NC[C@H](C)c3cc(OC)cc(OC)c3)n2)cc1 [compound 22]
- IC50 [1]: > 1 µM
- IC50 [2]: < 0.5 µM

SMILES: [2H]C([2H])([2H])Oc1cc(OC([2H])([2H])[2H])cc([C@H](O)CNC(=O)c2cncc(-c3ccc(OC([2H])([2H])[2H])nc3)n2)c1 [compound 92]
- IC50 [1]: > 1 µM
- IC50 [2]: > 1 µM

SMILES: COc1cc(CCNC(=O)c2cncc(-c3ccc(OC(F)F)nc3)n2)cc(OC)c1 [compound 29]
- IC50 [1]: 0.5 to 1 µM
- IC50 [2]: < 0.5 µM

SMILES: [2H]C([2H])([2H])Oc1ccc(-c2cncc(C(=O)NC[C@@H](O)c3cc(OC([2H])([2H])[2H])cc(OC([2H])([2H])[2H])c3)n2)cc1 [compound 99]
- IC50 [2]: 0.5 to 1 µM
